# Data: patent publication EP0571685A1, “Aryloxyheteroarylpropylamines, their preparation and use” (NOVO NORDISK A/S, priority 1992, dated 1993)
# Test system: voltage operated calcium channels (VOC)
# Test: Inhibition of depolarization-induced 45Ca uptake into brain synaptosomes
# Type: biochemical
# Conditions: crude synaptosomal preparation (P₂) from male Wistar rat cerebral cortex; depolarization with 145 mM KCl; 15 s uptake; corrected for basal uptake; estimated from dose response curves
# Source text: The pharmacological properties of the compounds of the invention can be illustrated by determining their capability to inhibit calcium uptake into brain synaptosomes.
# Depolarization of neuronal membranes leads to an opening of socalled "voltage operated calcium channels" (VOC) in the membranes which allows a massive influx of calcium from the extracellular space. A crude synaptosomal preparation (socalled P₂ fraction) contains small vesicles surrounded by neuronal membrane and it is possible in such a preparation to study a depolarization-induced opening of VOC.
# A male Wistar rat is decapitated and the cerebral cortex removed and homogenized in 10 ml. of ice-cold 0.32 M sucrose using a glass homogenizer with a teflon pestle. All subsequent steps for isolation of synaptosomes are done at 0-4°C. The homogenate is centrifuged at 1000 x g for 10 min and the resulting supernatant is re-centrifuged at 18000 x g for 20 min. This pellet (P₂) is resuspended in 0.32 M sucrose (5 ml per g of original tissue) with a teflon pestle.
# The tubes are pre-incubated for 30 min on ice and then for 6 min at 37°C in a water bath.
# The incubation is continued for 15 s.
# The amount of radioactivity on the filter disc is determined by liquid scintillation spectrometry.
# Test substances are dissolved in 10 ml of 48% ethanol at a concentration of 0.44 mg/ml. Dilution are made in 48% ethanol to give final concentrations of 0.1, 0.3, 1, 3 and 10 µg/ml. Experiments are performed in triplicate. Controls for depolarized and nondepolarized samples are included in the assay and test substances are only tested in depolarized samples.
# The test value will be given as IC₅₀ (the concentration (µg/ml) of test substance which inhibit 50% of stimulated uptake of ⁴⁵Ca (uptake in depolarized samples corrected for basal uptake in nondepolarized samples )). The IC₅₀ value is estimated from dose response curves.
row,SMILES,IC₅₀ (concentration of test substance which inhibit 50% of stimulated uptake of ⁴⁵Ca) [µg/mL]
1,"CCCCNCCC(Oc1ccc(C#N)cc1)c1cc(C)sc1C.O=C(O)C(=O)O (stereo not shown) [Compound 3, N-butyl-3-(4-cyanophenoxy)-3-(2,5-dimethyl-3-thienyl)propanamine, oxalate]",6.6
2,"CCCCNCCC(Oc1ccc(C(F)(F)F)cc1)c1cc(C)sc1C.O=C(O)C(=O)O (stereo not shown) [Compound 4, N-butyl-3-(2,5-dimethyl-3-thienyl)-3-(4-trifluoromethylphenoxy)propanamine, oxalate]",3.8
3,"Cc1coc(C)c1C(CCN(C)C)Oc1ccc(C(F)(F)F)cc1.O=C(O)C(=O)O (stereo not shown) [Compound 11, N,N-Dimethyl-3-(2,4-dimethyl-3-furyl)-3-(4-trifluoromethylphenoxy)propaneamine, oxalate]",10.3
4,"FC(F)(F)c1ccc(OC(CCN2CCCCC2)c2ccc(Cl)s2)cc1.O=C(O)C(=O)O (stereo not shown) [Compound 15, 1-(3-(5-chloro-2-thienyl)-3-(4-trifluoromethylphenoxy)propyl)piperidine, oxalate]",2.4
5,"N#Cc1cccc(OC(CCN2CCCCC2)c2ccc(Cl)s2)c1.O=C(O)C(=O)O (stereo not shown) [Compound 16, 1-(3-(5-chloro-2-thienyl)-3-(3-cyanophenoxy)propyl)piperidine, oxalate]",12.0
6,"FC(F)(F)c1ccccc1OC(CCN1CCCCC1)c1ccc(Cl)s1.O=C(O)C(=O)O (stereo not shown) [Compound 17, 1-(3-(5-chloro-2-thienyl)-3-(2-trifluoromethylphenoxy)propyl)piperidine, oxalate]",3.0
7,"FC(F)(F)c1cccc(OC(CCN2CCCCC2)c2ccc(Cl)s2)c1.O=C(O)C(=O)O (stereo not shown) [Compound 18, 1-(3-(5-chloro-2-thienyl)-3-(3-trifluoromethylphenoxy)propyl)piperidine, oxalate]",7.3
8,"CSc1ccc(OC(CCN(C)C)c2ccc(Br)s2)cc1.O=C(O)C(=O)O (stereo not shown) [Compound 19, 3-(5-Bromo-2-thienyl)-N,N-dimethyl-3-(4-(methylthio)phenoxy)propanamine, oxalate]",4.4
9,"CN(C)CCC(Oc1ccc(Oc2ccccc2)cc1)c1ccc(Br)s1.O=C(O)C(=O)O (stereo not shown) [Compound 21, 3-(5-Bromo-2-thienyl)-N,N-dimethyl-3-(4-phenoxyphenoxy)propanamine, oxalate]",5.9
10,"CN(C)CCC(Oc1ccc(-c2ccccc2)cc1)c1ccc(Br)s1.O=C(O)C(=O)O (stereo not shown) [Compound 22, 3-(5-Bromo-2-thienyl)-N,N-dimethyl-3-(4-phenylphenoxy)propanamine, oxalate]",4.4
11,"CN(C)CCC(Oc1ccc(C(F)(F)F)cc1)c1cccs1.O=C(O)C(=O)O (stereo not shown) [Compound 23, N,N-dimethyl-3-(2-thienyl)-3-(4-trifluoromethylphenoxy)propanamine, oxalate]",8.6
12,"FC(F)(F)c1ccc(OC(CCN2CCCCC2)c2cccs2)cc1.O=C(O)C(=O)O (stereo not shown) [Compound 24, 1-(3-(2-Thienyl)-3-(4-trifluoromethylphenoxy)propyl)piperidine, oxalate]",5.8
13,"CN(C)CCC(Oc1ccc(C(F)(F)F)cc1)c1ccsc1.Cl (stereo not shown) [Compound 27, N,N-dimethyl-3-(3-thienyl)-3-(4-trifluoromethylphenoxy)propanamine, hydrochloride]",13
